Consider one molecule from paper PMC7751175, “Lateral Gene Transfer Acts As an Evolutionary Shortcut to Efficient C4 Biochemistry” (Molecular Biology and Evolution, 2020).

What all share (experiment): malate dehydrogenase-coupled NADH oxidation at […] nm; nonlinear regression
Holding throughout (conditions): co-substrate bicarbonate, 5 mM MgCl2, 50 mM Tris-HCl pH 7.4, 25 °C; read-out: KM(PEP)

Assay [1] deals with isoform 2, native co-opted ppc-1P6 PEPC (TPE1-10). Format: biochemical, Alloteropsis semialata.
Assay [2] relates to isoform 5, native co-opted ppc-1P3 PEPC (MAD1-03). The format is biochemical, Alloteropsis semialata.
Assay [3] deals with isoform 11, ppc-1P3_LGT:A PEPC (AUS1-01). The format is biochemical, Alloteropsis semialata.
Assay [4] relates to isoform 7, Donor_M ppc-1P3_M PEPC. The format is biochemical, Megathyrsus maximus.
In assay [5] the test system is isoform 6, native co-opted ppc-1P3 PEPC (AANG4-8). Format: biochemical, Alloteropsis angusta.
In assay [6] the test system is isoform 12, Donor_C ppc-1P3_C PEPC. The format is biochemical, Setaria barbata.
Assay [7] has as its system isoform 8, ppc-1P3_LGT:M PEPC (A. cimicina). The format is biochemical, Alloteropsis cimicina.
Assay [8] concerns isoform 10, Donor_A ppc-1P3_A PEPC. The format is biochemical, Themeda triandra.
In assay [9] the test system is isoform 1, non-C4 ppc-1P6 PEPC (RSA5-03). Format: biochemical, Alloteropsis semialata.

The structures appear in SMILES notation.

Regarding `C=C(OP(=O)(O)O)C(=O)O` [PEP], the Michaelis constant (Km) in assay [1] was 196 ± 12.9 µM; in [2], 188 ± 12.5 µM; in assay [3], 699 ± 50.4 µM; in assay [4], 921 ± 99.1 µM; in [5], 324 ± 23.3 µM; in [6] it was 612 ± 55.9 µM. Moreover, the Michaelis constant (Km) in assay [7] is 710 ± 47.2 µM; in assay [8], 687 ± 72.8 µM; in assay [9], 319 ± 33.5 µM.
